Assay [1] is filed under the species Rattus norvegicus. Nature of the assay: Selectivity ratio of pA2 for alpha1D adrenoceptor in Wistar rat thoracic aorta to pKb for alpha1B adrenoceptor in Wistar rat spleen.
For assay [2], the target named is T1, Alpha-1D adrenergic receptor (Homo sapiens, UniProt P25100).
T1 sequence (P25100 whole entry): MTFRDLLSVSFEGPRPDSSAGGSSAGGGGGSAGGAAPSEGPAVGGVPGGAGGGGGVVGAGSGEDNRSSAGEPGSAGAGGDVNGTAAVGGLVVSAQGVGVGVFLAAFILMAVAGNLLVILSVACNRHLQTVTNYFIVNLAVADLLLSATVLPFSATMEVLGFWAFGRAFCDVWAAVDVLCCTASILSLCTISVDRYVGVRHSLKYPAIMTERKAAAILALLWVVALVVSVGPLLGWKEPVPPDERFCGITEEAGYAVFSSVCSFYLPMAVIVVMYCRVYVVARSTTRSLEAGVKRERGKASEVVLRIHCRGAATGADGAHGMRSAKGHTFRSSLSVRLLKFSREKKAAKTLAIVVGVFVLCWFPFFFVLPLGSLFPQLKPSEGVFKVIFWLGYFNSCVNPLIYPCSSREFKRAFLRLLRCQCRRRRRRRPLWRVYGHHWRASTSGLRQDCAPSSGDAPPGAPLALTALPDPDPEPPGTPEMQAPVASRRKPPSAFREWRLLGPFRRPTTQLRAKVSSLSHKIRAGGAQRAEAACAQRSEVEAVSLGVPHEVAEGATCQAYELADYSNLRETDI
The assay is described as follows: Displacement of [3H]prazosin from human recombinant alpha1D adrenoceptor expressed in CHO cell membrane after 30 mins by liquid scintillation counting. It is filed as cell membranes. In general terms: Loss of bound radioactivity is the signal in a displacement assay; it reports binding, not function.

In assay [3] the target is T2, 5-hydroxytryptamine receptor 1A (Homo sapiens, UniProt P08908).
T2 sequence (P08908 whole entry): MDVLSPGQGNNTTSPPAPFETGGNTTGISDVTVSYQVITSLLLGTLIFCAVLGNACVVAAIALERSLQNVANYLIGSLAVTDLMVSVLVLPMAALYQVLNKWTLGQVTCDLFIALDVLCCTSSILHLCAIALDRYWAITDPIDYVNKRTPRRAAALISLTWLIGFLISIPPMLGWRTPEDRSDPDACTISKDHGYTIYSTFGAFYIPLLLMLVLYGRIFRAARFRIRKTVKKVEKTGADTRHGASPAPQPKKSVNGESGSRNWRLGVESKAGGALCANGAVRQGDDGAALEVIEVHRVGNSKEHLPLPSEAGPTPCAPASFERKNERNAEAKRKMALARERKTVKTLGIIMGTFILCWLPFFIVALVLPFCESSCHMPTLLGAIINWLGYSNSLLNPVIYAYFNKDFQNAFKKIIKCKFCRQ
Nature of the assay: Displacement of [3H]8-OH-DPAT from human recombinant 5-HT1A receptor expressed in HeLa cell membrane after 30 mins by liquid scintillation counting. It is filed as cell membranes.

Assay [4] deals with T3, 5-hydroxytryptamine receptor 1A (Homo sapiens) (UniProt P08908).
T3 sequence (whole entry): T2 sequence (P08908 whole entry)
The assay is described as follows: Agonist activity at human recombinant 5-HT1A receptor expressed in HeLa cell membrane after 20 mins by [35S]GTPgammaS binding assay. Format: functional, cell membranes. In general terms: Binding of GTPγS marks nucleotide exchange on a G protein.

Assay [5] concerns CHO. Nature of the assay: Selectivity index, ratio of pKi for human recombinant alpha1A adrenoceptor to pKi for human recombinant alpha1B adrenoceptor expressed in CHO cell membrane. It is filed as cell-based.
The target of assay [6] is T4, Alpha-1A adrenergic receptor (Rattus norvegicus) (UniProt P43140).
T4 sequence (whole entry): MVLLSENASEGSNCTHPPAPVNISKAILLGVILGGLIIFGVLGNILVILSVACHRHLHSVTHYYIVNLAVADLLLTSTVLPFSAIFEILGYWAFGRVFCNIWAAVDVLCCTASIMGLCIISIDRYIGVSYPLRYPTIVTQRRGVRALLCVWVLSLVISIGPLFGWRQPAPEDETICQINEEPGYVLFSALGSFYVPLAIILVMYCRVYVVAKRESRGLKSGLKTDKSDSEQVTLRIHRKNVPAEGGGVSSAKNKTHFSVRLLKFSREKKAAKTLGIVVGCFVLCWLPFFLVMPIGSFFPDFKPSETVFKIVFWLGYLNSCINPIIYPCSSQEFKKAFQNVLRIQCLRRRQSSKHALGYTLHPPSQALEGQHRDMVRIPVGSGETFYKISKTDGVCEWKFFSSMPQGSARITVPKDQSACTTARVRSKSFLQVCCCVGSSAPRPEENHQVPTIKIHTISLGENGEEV
Nature of the assay: Antagonist activity at alpha1A adrenoceptor in Wistar rat vas deferans assessed as noradrenaline-induced contractions after 30 mins.

Assay [7] concerns CHO. The assay is described as follows: Selectivity index, ratio of pKi for human recombinant 5-HT1A receptor expressed in HeLa cell membrane to pKi for human recombinant alpha1D adrenoceptor expressed in CHO cell membrane. It is filed as cell-based.
Assay [8] deals with CHO. Nature of the assay: Selectivity index, ratio of pKi for human recombinant alpha1D adrenoceptor to pKi for human recombinant alpha1B adrenoceptor expressed in CHO cell membrane. It is filed as cell-based.
For assay [9], the system named is CHO. Nature of the assay: Selectivity index, ratio of pKi for human recombinant alpha1D adrenoceptor to pKi for human recombinant alpha1A adrenoceptor expressed in CHO cell membrane. Format: cell-based.
The species entered for assay [10] is Rattus norvegicus. The assay is described as follows: Selectivity ratio of pKb for alpha1A adrenoceptor in Wistar rat vas deferans to pKb for alpha1B adrenoceptor in Wistar rat spleen.
Assay [11] has as its target T5, Alpha-1B adrenergic receptor (Homo sapiens, UniProt P35368).
T5 sequence (P35368 whole entry): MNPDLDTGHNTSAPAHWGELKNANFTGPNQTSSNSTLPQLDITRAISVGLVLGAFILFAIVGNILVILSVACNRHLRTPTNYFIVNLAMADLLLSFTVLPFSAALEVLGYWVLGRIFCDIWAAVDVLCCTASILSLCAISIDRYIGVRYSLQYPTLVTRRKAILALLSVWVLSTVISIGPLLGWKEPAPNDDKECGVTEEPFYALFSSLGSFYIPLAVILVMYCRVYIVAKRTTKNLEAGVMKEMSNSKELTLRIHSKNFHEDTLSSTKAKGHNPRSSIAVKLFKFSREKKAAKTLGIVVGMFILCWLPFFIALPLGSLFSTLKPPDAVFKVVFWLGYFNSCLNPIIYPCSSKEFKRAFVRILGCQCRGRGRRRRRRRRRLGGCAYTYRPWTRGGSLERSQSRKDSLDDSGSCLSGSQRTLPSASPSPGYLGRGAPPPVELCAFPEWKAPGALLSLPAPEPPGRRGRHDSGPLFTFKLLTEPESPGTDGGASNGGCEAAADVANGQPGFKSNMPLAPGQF
The assay is described as follows: Displacement of [3H]prazosin from human recombinant alpha1B adrenoceptor expressed in CHO cell membrane after 30 mins by liquid scintillation counting. It is filed as cell membranes.

The species named for assay [12] is Rattus norvegicus. The assay is described as follows: Selectivity ratio of pA2 for alpha1D adrenoceptor in Wistar rat thoracic aorta to pKb for alpha1A adrenoceptor in Wistar rat vas deferans.
Assay [13] has as its target T6, Alpha-1B adrenergic receptor (Rattus norvegicus) (UniProt P15823).
T6 sequence (whole entry): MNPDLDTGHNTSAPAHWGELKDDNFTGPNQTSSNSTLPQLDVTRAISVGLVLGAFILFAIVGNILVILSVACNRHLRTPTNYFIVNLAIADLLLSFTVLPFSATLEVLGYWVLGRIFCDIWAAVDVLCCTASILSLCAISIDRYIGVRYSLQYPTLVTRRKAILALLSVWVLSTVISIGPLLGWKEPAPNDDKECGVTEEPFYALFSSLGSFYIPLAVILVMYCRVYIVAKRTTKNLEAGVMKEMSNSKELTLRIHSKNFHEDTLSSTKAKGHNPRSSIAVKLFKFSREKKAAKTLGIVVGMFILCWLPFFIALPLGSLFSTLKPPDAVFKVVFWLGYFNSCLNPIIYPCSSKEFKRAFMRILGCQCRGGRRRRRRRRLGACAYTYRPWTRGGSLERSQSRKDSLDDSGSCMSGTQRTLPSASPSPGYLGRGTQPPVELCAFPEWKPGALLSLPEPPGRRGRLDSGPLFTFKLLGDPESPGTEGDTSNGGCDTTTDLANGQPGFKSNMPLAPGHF
The assay is described as follows: Antagonist activity at alpha1B adrenoceptor in Wistar rat spleen assessed as phenylephrine-induced contractions after 30 mins.

For assay [14], the target named is T7, Alpha-1D adrenergic receptor (Rattus norvegicus, UniProt P23944).
T7 sequence (P23944 whole entry): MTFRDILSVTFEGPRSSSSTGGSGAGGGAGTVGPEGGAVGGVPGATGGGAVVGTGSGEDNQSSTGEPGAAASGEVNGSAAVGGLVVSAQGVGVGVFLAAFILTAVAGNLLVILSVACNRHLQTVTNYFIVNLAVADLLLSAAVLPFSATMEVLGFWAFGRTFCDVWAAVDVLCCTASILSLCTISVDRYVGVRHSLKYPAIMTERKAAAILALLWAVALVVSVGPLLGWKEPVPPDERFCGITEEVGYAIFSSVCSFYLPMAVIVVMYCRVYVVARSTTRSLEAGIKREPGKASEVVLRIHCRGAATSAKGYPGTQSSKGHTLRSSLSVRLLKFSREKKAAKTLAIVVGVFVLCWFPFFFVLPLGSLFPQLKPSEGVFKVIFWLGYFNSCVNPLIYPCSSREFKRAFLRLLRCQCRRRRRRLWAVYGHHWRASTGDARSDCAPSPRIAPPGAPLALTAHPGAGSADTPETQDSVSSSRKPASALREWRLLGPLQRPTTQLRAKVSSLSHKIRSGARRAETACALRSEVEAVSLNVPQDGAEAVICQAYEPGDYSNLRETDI
The assay is described as follows: Antagonist activity at alpha1D adrenoceptor in Wistar rat thoracic aorta assessed as noradrenaline-induced contractions after 30 mins. Format: tissue-based. The following applies: read-out: pA2 (converted).

Assay [15] has as its target T8, Alpha-1A adrenergic receptor (Homo sapiens, UniProt P35348).
T8 sequence (P35348 whole entry): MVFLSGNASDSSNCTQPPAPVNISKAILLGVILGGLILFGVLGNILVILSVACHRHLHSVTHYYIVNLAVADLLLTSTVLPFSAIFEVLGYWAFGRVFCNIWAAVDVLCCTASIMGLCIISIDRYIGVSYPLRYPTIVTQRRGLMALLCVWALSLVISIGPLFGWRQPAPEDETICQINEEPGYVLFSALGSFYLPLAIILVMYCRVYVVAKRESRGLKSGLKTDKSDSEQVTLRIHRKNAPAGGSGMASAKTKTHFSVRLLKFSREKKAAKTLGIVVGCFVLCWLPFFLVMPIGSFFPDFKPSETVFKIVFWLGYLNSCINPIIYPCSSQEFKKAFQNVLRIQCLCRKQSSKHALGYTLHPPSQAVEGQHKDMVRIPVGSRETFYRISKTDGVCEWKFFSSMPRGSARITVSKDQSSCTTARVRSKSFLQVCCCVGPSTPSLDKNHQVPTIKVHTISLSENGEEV
The assay is described as follows: Displacement of [3H]prazosin from human recombinant alpha1A adrenoceptor expressed in CHO cell membrane after 30 mins by liquid scintillation counting. It is filed as cell membranes.

The values below come from ChEMBL document CHEMBL3739306, “Enantiomeric resolution of [(2,2-diphenyl-1,3-dioxolan-4-yl)methyl](2-phenoxyethyl)amine, a potent 1and 5-HT1Areceptor ligand: an in vitro and computational study” (Medchemcomm, 2015).

One may read the Ki as the dissociation constant of the complex between target and ligand, obtained from inhibition or displacement. What is called Emax is the size of the effect at its maximum, as opposed to the concentration needed. The term pKb denotes −log10 of the Kb, conventionally taken in molar units.

In the case of `c1ccc(OCCNC[C@H]2COC(c3ccccc3)(c3ccccc3)O2)cc1`, the results for the Ratio in the assay listed under Rattus norvegicus [1], in the assay listed under Rattus norvegicus [10] and in the assay filed under Rattus norvegicus [12] were 30, 1 and 26, respectively. Also, the Ki in [2] is 14.5 nM; in assay [3], 3.8 nM; in assay [11], 115 nM; in assay [15] it was 126 nM. For the same compound, the Emax in assay [4] was 50%. For the same compound, the pD2 in assay [4] stood at 6.85. Further, the Ratio pKi in the assay with CHO [5] was 1; in the assay with CHO [7], 4; in the assay on CHO [8], 8; in the assay with CHO [9] it was 9. Besides, the pKb in [6] came out at 6.2; in [13] it was 6.14. Besides, the Kb in assay [14] is 24.5 nM.

Regarding `c1ccc(OCCNCC2COC(c3ccccc3)(c3ccccc3)O2)cc1` (racemic), the results for the Ratio in the assay listed under Rattus norvegicus [1], in the assay listed under Rattus norvegicus [10] and in the assay filed under Rattus norvegicus [12] were 219, 0.5 and 110, respectively. Moreover, the Ki in assay [2] is 11.7 nM. Besides, the pD2 in [4] worked out at 8.8. The Ratio pKi came to 2 in the assay on CHO [5], 3 in the assay on CHO [7], 5 with CHO [8] and 3 in the assay with CHO [9]. Also, the pKb came to 6.16 in assay [6] and 5.86 in assay [13]. Moreover, in assay [14], the Kb was 6.31 nM.

For the compound `c1ccc(OCCNC[C@@H]2COC(c3ccccc3)(c3ccccc3)O2)cc1`, the Ratio in the assay listed under Rattus norvegicus [1] worked out at 34; in the assay filed under Rattus norvegicus [10], 1; in the assay filed under Rattus norvegicus [12], 23. Besides, the Ki in assay [2] is 22.9 nM; in [3] it was 3.02 nM; in assay [11] it was 79.4 nM; in assay [15], 30.2 nM. Besides, the Emax in [4] was 65.3%. Also, in assay [4], the pD2 is 7.45. In addition, the Ratio pKi with CHO [5] came to 3; in the assay with CHO [7] it was 8; in the assay with CHO [8] it was 3; in the assay on CHO [9], 1. The pKb turned out to be 6.67 in assay [6] and 6.51 in assay [13]. In assay [14], the Kb is 5.13 nM.
